Assay results: patent US9193722B2, “Tri-cyclic pyrazolopyridine kinase inhibitors” (Vertex Pharmaceuticals Incorporated, priority 2008, dated 2015)

Tests used:
Type in all cases: biochemical
PKC theta kinase = PKC theta kinase (Homo sapiens, UniProt Q04759); test: PKC theta kinase inhibition, coupled-enzyme (NADH absorbance) assay, Ki; conditions: 240 μM ATP, 18 nM PKC theta kinase, 30° C.
Protocol: An assay buffer solution was prepared which consisted of 100 mM HEPES (pH 7.5), 10 mM MgCl2, 25 mM NaCl, 0.1 mM EDTA and 0.01% Brij. […] To 60 μL of this enzyme buffer, in a 384 well plate, was added 2 μL of VRT stock solution in DMSO. The mixture was allowed to equilibrate for 10 mins at 30° C. […] Ki values were calculated from initial rate data by non-linear regression using the Prism software package (Prism 4.0a, Graphpad Software, San Diego, Calif.).

PKC alpha kinase = PKC alpha kinase (Homo sapiens, UniProt P17252); test: PKC alpha kinase inhibition, coupled-enzyme (NADH absorbance) assay, Ki; conditions: 130 μM ATP, 4.5 nM PKC alpha kinase, 30° C.
Protocol: (§1) An assay buffer solution was prepared which consisted of 100 mM HEPES (pH 7.5), 10 mM MgCl2, 25 mM NaCl, 0.1 mM EDTA, 100 μM CaCl2 and 0.01% Brij. […] To 16 μL of this enzyme buffer, in a 384 well plate, was added 1 μL of VRT stock solution in DMSO. The mixture was allowed to equilibrate for 10 mins at 30° C. The enzyme reaction was initiated by the addition of 16 μL stock ATP solution prepared in assay buffer to a final assay concentration of 130 μM. Initial rate data was determined from the rate of change of absorbance at 340 nm (corresponding to stoichiometric consumption of NADH) using a Molecular Devices Spectramax plate reader (Sunnyvale, Calif.) over 15 mins at 30° C. […] Ki values were calculated from initial rate data by non-linear regression using the Prism software package (Prism 4.0a, Graphpad Software, San Diego, Calif.).

PKC delta kinase = PKC delta kinase (Homo sapiens, UniProt Q05655); test: PKC delta kinase inhibition, coupled-enzyme (NADH absorbance) assay, Ki; conditions: 150 μM ATP, 46 nM PKC delta kinase, 30° C.; read-out: Ki PKC delta
Chain of PKC delta kinase (Q05655 whole entry): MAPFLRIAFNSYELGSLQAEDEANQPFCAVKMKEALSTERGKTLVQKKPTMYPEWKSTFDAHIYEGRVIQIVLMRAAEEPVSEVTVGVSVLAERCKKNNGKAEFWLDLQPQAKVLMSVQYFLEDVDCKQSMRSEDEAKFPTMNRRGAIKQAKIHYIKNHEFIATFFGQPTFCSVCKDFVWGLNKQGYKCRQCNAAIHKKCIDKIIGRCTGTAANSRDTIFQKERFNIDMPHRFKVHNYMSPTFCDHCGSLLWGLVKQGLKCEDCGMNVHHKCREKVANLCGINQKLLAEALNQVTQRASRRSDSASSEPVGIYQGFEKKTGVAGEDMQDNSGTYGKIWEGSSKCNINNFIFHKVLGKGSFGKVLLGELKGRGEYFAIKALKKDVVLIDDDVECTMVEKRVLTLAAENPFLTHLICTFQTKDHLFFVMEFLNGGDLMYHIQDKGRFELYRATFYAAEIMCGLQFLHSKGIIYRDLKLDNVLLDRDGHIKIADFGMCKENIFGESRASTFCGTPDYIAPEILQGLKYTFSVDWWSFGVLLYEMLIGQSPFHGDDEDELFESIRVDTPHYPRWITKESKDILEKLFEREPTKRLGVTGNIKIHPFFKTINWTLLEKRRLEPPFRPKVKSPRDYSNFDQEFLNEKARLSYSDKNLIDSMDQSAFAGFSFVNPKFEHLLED
Protocol: as §1, with “EDTA” for “EDTA, 100 μM CaCl2”, “150” for “130”

Chain of PKC theta kinase (Q04759 whole entry): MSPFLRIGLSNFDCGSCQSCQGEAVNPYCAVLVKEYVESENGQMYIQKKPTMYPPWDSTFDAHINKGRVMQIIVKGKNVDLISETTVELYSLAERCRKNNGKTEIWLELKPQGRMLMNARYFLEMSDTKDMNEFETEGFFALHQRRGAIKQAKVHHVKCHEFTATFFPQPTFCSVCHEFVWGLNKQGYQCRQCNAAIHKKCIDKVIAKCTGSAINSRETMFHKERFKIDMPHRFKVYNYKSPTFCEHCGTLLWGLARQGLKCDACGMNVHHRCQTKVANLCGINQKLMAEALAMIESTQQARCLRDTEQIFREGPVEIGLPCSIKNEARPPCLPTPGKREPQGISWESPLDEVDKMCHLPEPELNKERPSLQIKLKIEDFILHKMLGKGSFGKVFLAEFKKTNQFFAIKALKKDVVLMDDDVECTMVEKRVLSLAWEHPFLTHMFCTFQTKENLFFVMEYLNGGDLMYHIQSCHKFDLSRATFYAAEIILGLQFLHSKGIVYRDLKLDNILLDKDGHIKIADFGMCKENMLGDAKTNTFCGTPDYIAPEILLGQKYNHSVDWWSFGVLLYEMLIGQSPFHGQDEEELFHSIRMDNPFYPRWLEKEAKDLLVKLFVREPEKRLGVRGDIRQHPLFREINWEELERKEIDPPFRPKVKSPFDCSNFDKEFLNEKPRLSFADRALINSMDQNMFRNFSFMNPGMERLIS

Compound	Ki (PKC theta kinase)	Ki (PKC alpha kinase)	Ki (PKC delta kinase)
FC(F)(F)c1cc(-c2n[nH]c3ncccc23)nc(N2CCNCC2)c1 [Compound 94]	> 0.7 µM	> 1.25 µM	> 2 µM
CCCC1CN(c2ccc(C(F)(F)F)c(-c3n[nH]c4ncccc34)n2)CCN1 (stereo not drawn) [Compound 113]	< 0.05 µM	> 1.25 µM	> 1.25 µM
CC(C)CC1CN(c2ccc(C(F)(F)F)c(-c3n[nH]c4ncccc34)n2)CCC1CCN (stereo not drawn) [Compound 469]	< 0.5 µM	> 1.25 µM	> 1.25 µM
C[C@H]1CN(c2cccc(-c3n[nH]c4ncc(Cl)cc34)n2)CCN1 [Compound 43]	< 0.5 µM	< 0.5 µM	< 0.5 µM
CC(N)[C@H]1CCCN(c2ccc(F)c(-c3n[nH]c4ncccc34)n2)C1 (stereo partly drawn) [Compound 262]	< 0.05 µM	> 1.25 µM	< 0.5 µM
C[C@](O)(c1ccccc1)[C@@H]1CN(c2ccc(F)c(-c3n[nH]c4ncccc34)n2)CCN1 [Compound 274]	< 0.5 µM	> 1.25 µM	> 1.25 µM
CCC[C@@H]1CN(c2cccc(-c3n[nH]c4ncccc34)n2)C[C@H](CC(C)C)N1 [Compound 15]	< 0.05 µM	< 2.8 µM	< 0.5 µM
CCC1(C)CN(c2ccc(C(F)(F)F)c(-c3n[nH]c4ncccc34)n2)CCC1N (stereo not drawn) [Compound 447]	< 0.05 µM	> 1.25 µM	< 0.5 µM
CC(C)CC1(CN)CCN(c2ccc(F)c(-c3n[nH]c4ncccc34)n2)CC1 [Compound 467]	< 0.5 µM	> 1.25 µM	> 1.25 µM
CCOC(=O)N1CCN(c2ccc(F)c(-c3n[nH]c4ncccc34)n2)CC1C(C)(O)C(C)C (stereo not drawn) [Compound 418]	> 0.7 µM	> 1.25 µM	> 1.25 µM
CCC(C)(O)C1CN(c2ccc(F)c(-c3n[nH]c4ncccc34)n2)CCN1 (stereo not drawn) [Compound 161]	< 0.05 µM	> 1.25 µM	< 0.5 µM
c1cc(-c2n[nH]c3ncccc23)nc(N2CCN[C@@H](CC3CC3)C2)c1 [Compound 162]	< 0.05 µM	< 2.8 µM	< 0.5 µM
CCC(N)C1(C(F)(F)F)CCN(c2ccc(F)c(-c3n[nH]c4ncccc34)n2)C1 (stereo not drawn) [Compound 448]	< 0.5 µM	> 1.25 µM	< 2.8 µM
CO[C@H]1CN(c2ccc(F)c(-c3n[nH]c4ncccc34)n2)CC[C@H]1N [Compound 389]	< 0.5 µM	< 2.8 µM	< 2.8 µM
N[C@@H]1CCN(c2cccc(-c3n[nH]c4ncccc34)n2)C1 [Compound 33]	< 0.5 µM	> 1.25 µM	< 2.8 µM
CC(C)CC1CN(c2ccc(F)c(-c3n[nH]c4ncccc34)n2)CCC1CC#N (stereo not drawn) [Compound 452]	< 0.05 µM	> 1.25 µM	> 1.25 µM
CC(C)(O)C1CN(c2ccc(C(F)(F)F)c(-c3n[nH]c4ncccc34)n2)CCN1 (stereo not drawn) [Compound 87]	< 0.5 µM	> 1.25 µM	> 2 µM
C=C(C)CC1CN(c2ccc(C(F)(F)F)c(-c3n[nH]c4ncccc34)n2)CCN1 (stereo not drawn) [Compound 103]	< 0.05 µM	< 2.8 µM	< 0.5 µM
CC[C@H]1CN(c2ccc(C(F)(F)F)c(-c3n[nH]c4ncccc34)n2)CCN1 [Compound 75]	< 0.5 µM	> 1.25 µM	< 2.8 µM
CC(C)C[C@@]1(O)CN(c2ccc(C(F)(F)F)c(-c3n[nH]c4ncccc34)n2)CC[C@H]1N [Compound 195]	< 0.05 µM	< 0.5 µM	< 0.5 µM
CC(C)C(C)(O)C1CN(c2nc(-c3n[nH]c4ncccc34)ccc2F)CCN1 (stereo not drawn) [Compound 329]	< 0.001 µM	< 2.8 µM	< 0.05 µM
CC(C)(O)CC1CN(c2cccc(-c3n[nH]c4ncccc34)n2)CCN1 (stereo not drawn) [Compound 36]	< 0.05 µM	< 2.8 µM	< 0.5 µM
OC1(C2CN(c3ccc(F)c(-c4n[nH]c5ncccc45)n3)CCN2)CCCC1 (stereo not drawn) [Compound 245]	< 0.05 µM	> 1.25 µM	< 0.5 µM
